Assay: Stability of EDA dry mix versus EDA solutions in solvents
Type: physicochemical
Text: In comparison, solutions prepared by dissolving 2 wt % EDA in a) pure methanol, b) pure ethanol, c) methanol+10 wt % water (pH 4.5) and d) ethanol+10% water (pH 4.5), were stable for 2 days, 2 days, 4 days and 4 days, respectively.

In the case of `CCOC(=O)[C@@]1(OC(=O)C(Cl)Cl)CCC2C3CCC4=CC(=O)C=CC4(C)C3C(O)CC21C` (stereo partly drawn) [EDA, ethyl 17α-dichloroacetoxy-11β-hydroxyandrosta-1,4-dien-3-one-17β-carboxylate], the “Time stable in solution” value (2 wt % EDA in ethanol+10% water (pH 4.5)) is reported as 4 days, the “Time stable in solution” value (2 wt % EDA in methanol+10 wt % water (pH 4.5)) is reported as 4 days and the “Time stable in solution” value (2 wt % EDA in pure ethanol) is reported as 2 days. For the same compound, the “Time stable in solution” value (2 wt % EDA in pure methanol) was 2 days.
